Patent US6641848B1, “Saponin or sapogenol compositions for increasing collagen IV synthesis” (Parfums Christian Dior, priority 1998, dated 2003)

Key:
[1] = tested on: collagen IV; assay: Amount of collagen IV in normal human keratinocyte culture (ELISA), soya saponins with beta-ecdysone, 48 h; type: cell-based; details: beta-ecdysone alone, same experiment
Protocol: (§1) The cultures of normal human keratinocytes (NHK) are grown from a surgical specimen of healthy skin. In the present study, the tests were carried out on a strain of cells, denoted by HK 44, originating from a facelift performed on a person.
The keratinocytes are cultured in K-SFM growth medium, which is a complete specific keratinocyte culture medium (SFM=serum free medium) complemented with EGF (epidermal growth factor) and pituitary extract, said medium being marketed by Gibco, France. The cells were subcultured once from the primary culture in one passage, denoted by P1.
The cells are inoculated in 96-well culture plates at a rate of 25,000 NHK per well in K-SFM. After 24 h of incubation, which is necessary for good adhesion of the cells, the inoculation medium is withdrawn and replaced with K-SFM diluted 50-fold in the same base medium, but devoid of EGF and pituitary extract. […]
The controls will receive the same amount of DMSO solvent as for the product tested at a final concentration of 0.1%.
The culture supernatants are recovered for carrying out an ELISA, as explained below.
The protocol for assaying the collagen IV by an ELISA method is adapted from that described by DUMAS M. et al. in Mechanisms of Ageing and Development, 1994, 73, pages 179-187. […]
(§2) The activity A of the product is expressed as a percentage and corresponds to the following formula: [formula] […]

[2] = tested on: collagen IV; assay: Amount of collagen IV in normal human keratinocyte culture (ELISA), soya seed saponins, 72 h; type: cell-based; details: 10 ng/ml
Protocol: A soya seed extract commercially available under the reference SOY SELECT LOT 26040/2 from the Italian company Indena is used in this Example.
According to the marketing information, this extract contains saponins of the “soya saponin” category in a proportion of 29 to 30% by dry weight, with a predominance of group B soya sapogenols.
To validate the pertinence of the chosen experimental protocol, a series of these tests was carried out with a positive control, namely transforming growth factor beta (TGF-beta), which is known to increase the amount of collagen IV in a culture of human keratinocytes. Reference may be made to the article by Köning A. and Bruckner-Tuderman L., J. Cell. Biol., May 1992, 117(3), 679-85.
as §1
The keratinocytes are cultured in K-SFM growth medium, which is a complete specific keratinocyte culture medium (SFM=serum free medium) complemented with EGF (epidermal growth factor) and pituitary extract, said medium being marketed by Gibco, France. […]
as §2

Compound	increase in the amount of collagen IV [1]	Q (ng collagen IV/100 μg proteins; at 72 h) ([2]; NHK strain HK 44)	A (%) ([2]; vs DMSO control)
CC(C)(O)CC[C@@H](O)[C@](C)(O)[C@H]1CC[C@@]2(O)C3=CC(=O)[C@@H]4C[C@@H](O)[C@@H](O)C[C@]4(C)[C@H]3CC[C@]12C [beta-ecdysone]	No increase	–	–
transforming growth factor beta [TGF-beta]	–	5.615 ± 0.595 ng collagen IV/100 μg proteins	+50%
